Literature values as cited in patent US6548637B1, “Ligands for opioid receptors” (Sepracor, Inc., priority 1998, dated 2003).

System: mice
Details: intracerebroventricular injections to mice

Row | Compound | ED50 (analgesia) [µg]
1 | NC(=O)[C@H](Cc1ccccc1)NC(=O)[C@H](Cc1c[nH]c2ccccc12)NC(=O)C1CCCN1C(=O)[C@@H](N)Cc1ccc(O)cc1 (stereo partly drawn) [Example 1, Tyr-Pro-Trp-Phe-NH2] | 8.4
2 | NC(=O)C(Cc1ccccc1)NC(=O)[C@H](Cc1ccccc1)NC(=O)C1CCCN1C(=O)[C@@H](N)Cc1ccc(O)cc1 (stereo partly drawn) [Example 2, Tyr-Pro-Phe-Phe-NH2] | 2.9
